The test system of test [1] is mammary Tumoral cells MCF-7. The experiment in a line: Anti-proliferative activity against the increase of mammary tumoral cells MCF-7 (ADN by DABA fluorimetry). The conditions noted are these: Homo sapiens, MCF7, 144 h; MCF-7 cells, SVF medium, 6 days, ADN content; read-out: CI50 in nM (concentration which inhibits by 50% the increase in the MCF 7 cells). In kind it is cell-based. The method, then: The cell culture line MCF-7 was maintained in culture in SVF (1) medium at 37° C. in a humid atmosphere containing 5% CO2. The cells at subconfluence were collected by trypsination (0.05% trypsine, 0.02% EDTA) then rinsed by gentle centrifiguation. A sample of the cells in suspension was counted by the Malassez cell. To study the increase, the cells resuspended in SVF medium were innoculated at a rate of 30,000 cells per well in a multiwell plate (24 wells per 2.5 cm^2) 24 hours after the innoculation (Day 0), the test compound was added to the medium in an ethanolic solution (final ethanol concentration is 0.1%) a concentration of 10^-6 M. The control wells received the same concentration of ethanol. The mediums were totally renewed at 48 hours. At the end of the experiment (Day 6), the medium was aspirated and the cells were immediately fixed by 150 μl of methanol after a dose of ADN. The anti-proliferative activity of the products was determined by the capacity to inhibit ADN increase.
ADN is dosed by a fluorimetric method using DABA (3,5-diamino benzoic acid). 150 μl of DABA was added to each well and the plates were incubated for 45 minutes at 56° C. and then 1.5 ml of 1N hydrochloric acid was added. The fluoresence was measured with a fluorimeter (excitement length 400 nM-length of emission wave 500 nM). The amount of ADN per well was evaluated with respect to a standard scale obtained by treating under the same conditions an ADN standard of the calf thymus. The concentration in nM which inhibit by 50% the increase in the MCF 7 cells or CI50 was determined in the same manner with the results of the following Table.
The medium for culture of calf fetal serum (SVF) was prepared as follows: MEM medium (minimal essential medium) to which was added non-essential amino acids (GIBCO), peni-strepto (penicillin 100 U/ml, streptomycine 0.1 mg/ml), 0.1% fungizone, 50 ng/ml of insulin and a 10% final concentration of calf fetal serum free of endrogenic steroids.

Test [2] addresses T1, progesterone receptors of rabbit uterus (Oryctolagus cuniculus, UniProt P06186).
T1 construct: The first test was on the progesterone receptors of rabbit uterus; from tissue; host or cells: uterus of estradiol-treated immature rabbits, 105,000 g supernatant (cytosol)
T1 sequence (P06186 1-930): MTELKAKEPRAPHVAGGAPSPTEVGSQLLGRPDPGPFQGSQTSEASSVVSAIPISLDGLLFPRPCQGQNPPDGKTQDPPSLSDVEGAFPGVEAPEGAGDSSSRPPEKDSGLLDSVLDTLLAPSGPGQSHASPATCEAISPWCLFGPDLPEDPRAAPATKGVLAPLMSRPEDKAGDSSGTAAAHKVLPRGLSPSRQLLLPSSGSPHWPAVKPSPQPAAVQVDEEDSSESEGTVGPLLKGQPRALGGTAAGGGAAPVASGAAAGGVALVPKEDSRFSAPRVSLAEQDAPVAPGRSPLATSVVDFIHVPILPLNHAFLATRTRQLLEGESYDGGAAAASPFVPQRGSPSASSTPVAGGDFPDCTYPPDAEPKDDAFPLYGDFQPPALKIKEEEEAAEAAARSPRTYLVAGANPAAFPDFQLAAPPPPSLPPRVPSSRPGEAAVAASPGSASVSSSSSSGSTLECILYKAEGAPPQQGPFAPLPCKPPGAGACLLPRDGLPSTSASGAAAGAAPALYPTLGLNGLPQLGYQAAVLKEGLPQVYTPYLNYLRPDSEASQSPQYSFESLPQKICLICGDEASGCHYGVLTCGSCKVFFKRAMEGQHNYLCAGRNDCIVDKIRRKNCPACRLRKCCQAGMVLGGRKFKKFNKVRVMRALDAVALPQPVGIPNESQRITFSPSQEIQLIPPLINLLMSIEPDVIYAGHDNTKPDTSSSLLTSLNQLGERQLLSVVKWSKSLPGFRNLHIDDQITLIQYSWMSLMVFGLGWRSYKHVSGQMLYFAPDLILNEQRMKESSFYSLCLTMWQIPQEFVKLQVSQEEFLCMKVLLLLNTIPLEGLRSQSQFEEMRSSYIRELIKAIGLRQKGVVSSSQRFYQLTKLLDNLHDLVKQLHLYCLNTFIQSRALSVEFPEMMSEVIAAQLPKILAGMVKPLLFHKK
The experiment in a line: Relative binding affinity (ARL), progesterone receptors of rabbit uterus. The conditions noted are these: rabbit uterus cytosol, tritiated 17,21-dimethyl-19-nor-Δ4,9-pregnadiene-3,20-dione, cold reference hormone progesterone. The method, then: The first test was on the progesterone receptors of rabbit uterus in which immature rabbits weighing about 1 kg received a cutaneous application of […] of estradiol and 5 days after treatment, the animals were sacrificed. The […] was removed, weighed and homogenized at 0° C. with a Potter Teflon-glass ina buffered solution. TS (Tris 10 mM, 0.25M Saccharose, HCl, pH 7.4) (1 g of tissue per 50 ml of TS). The homogenate was ultracentrifuged at 105,000 g×90 minutes at 0° C. The surnageant samples were incubated at a time at (t) 0° C. with a constant concentration (T) of tritiated product (R) which is 17,21-dimethyl-19-nor-Δ^4,9 -pregnadiene-3,20-dione in the presence of increasing concentrations from 0 to 2500×10^-9 M or cold R or cold progestenone or cold test compound. The concentration of bound tritiated R was measured for each incubate by absorption technique on dextran carbon.
(§1) The relative affinity of the bond (ARL) was calculated in the same for the receptors. One traced the following 2 curves: the percentage of bond tritiated hormone B/T as a logarithmic function of the concentration of the cold reference hormone and B/T as a logarithmic function of the concentration of the cold test compound. Using the equation [formula] B/T max.=% of bound tritiated hormone for one incubation of tritiated hormone at concentration (T)
(§2) B/T min.=% of bound tritiated hormone for one incubation of tritiated hormone at a concentration T in the presence of a great excess of cold hormone (2500×10^-9 M).
(§3) The intersections of I50 lines and the curves permit an evaluation of the hormone concentration of the cold reference (CH) and the cold test compound (CX) which inhibited by 50% the bounding of tritiated hormone to the receptor. The ARL of the test compound was determined by the equation. [formula] and the following results were obtained.

The target in test [3] is T2, glucocorticoid receptor, rat thymus (Rattus norvegicus, UniProt P06536).
T2 construct: The second test was a glucocrticoid receptor test on rat thymus; from tissue; host or cells: thymus of adrenalectomized male Sprague Dawley EOPS rats, 105,000 g supernatant (cytosol)
T2 sequence (P06536 1-795): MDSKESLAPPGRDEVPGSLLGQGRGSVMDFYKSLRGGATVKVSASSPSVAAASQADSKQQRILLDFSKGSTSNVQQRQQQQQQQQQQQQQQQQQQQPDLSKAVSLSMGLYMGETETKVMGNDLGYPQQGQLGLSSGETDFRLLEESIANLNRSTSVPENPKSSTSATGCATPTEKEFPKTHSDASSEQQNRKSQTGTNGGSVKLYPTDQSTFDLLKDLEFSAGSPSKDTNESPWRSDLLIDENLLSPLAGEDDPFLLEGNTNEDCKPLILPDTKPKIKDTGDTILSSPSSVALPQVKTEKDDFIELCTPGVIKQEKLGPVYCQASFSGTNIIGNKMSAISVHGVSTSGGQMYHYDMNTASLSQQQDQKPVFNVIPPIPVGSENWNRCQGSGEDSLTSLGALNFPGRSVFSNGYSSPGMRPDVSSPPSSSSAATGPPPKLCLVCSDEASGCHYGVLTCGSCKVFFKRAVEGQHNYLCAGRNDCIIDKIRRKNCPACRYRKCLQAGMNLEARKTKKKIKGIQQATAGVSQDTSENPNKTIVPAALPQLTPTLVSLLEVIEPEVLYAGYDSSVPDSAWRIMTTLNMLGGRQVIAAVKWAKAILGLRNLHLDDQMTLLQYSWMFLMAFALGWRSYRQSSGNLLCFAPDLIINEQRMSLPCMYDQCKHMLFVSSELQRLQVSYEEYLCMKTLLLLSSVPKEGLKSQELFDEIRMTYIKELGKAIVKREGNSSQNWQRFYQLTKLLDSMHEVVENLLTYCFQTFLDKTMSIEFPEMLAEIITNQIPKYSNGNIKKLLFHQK
The test is described as follows: Relative binding affinity (ARL), glucocorticoid receptor of rat thymus. The conditions noted are these: rat thymus cytosol, tritiated dexamethasone, cold reference dexamethasone. The method, then: The second test was a glucocrticoid receptor test on rat thymus in which male rats of the Sprague Dawley EOPS strain weighing 160 to 200 g were surrenalectomized. 4 to 8 days after this ablation, the animals were killed and the thymus was removed and homogenized at 0° C. in a buffered TS solution. (Tris 10 mM, 0.25M saccharose, 2 mM dithiothreitol, HCl pH 7.4) with a Potter tetrafluoroethylene-glass (1 g of tissue per 10 ml/TS). The homogenate was ultracentrifuged at 105,000 for 90 minutes at 0° C. and the surnageant samples were incubated at 0° C. for a time t with a constant concentration T of tritiated dexamethasone in the presence of increasing concentrations (0-2500×10^-9 M) or cold dexamethasone or cold test compound. The concentration B of bound tritiated dexamethasone was measured for each incubate by carbon-dextran absorption technique.
as §1, §2, §3

`CN(C)c1ccc([C@H]2C[C@@]3(C)[C@@H](CC[C@@]3(O)c3ccc(O)cc3)[C@@H]3CCC4=CC(=O)CCC4=C32)cc1` [6 Product A]: the IC50 in test [1] is 50 nM.

In the case of `COc1ccc(C2=CC[C@H]3[C@@H]4CCC5=CC(=O)CCC5=C4[C@@H](c4ccc(N(C)C)cc4)C[C@]23C)cc1` [Example 5, 11β-(4-dimethylamino-phenyl)-17-(4-methoxy-phenyl)-Δ^4,9,16-estratriene-3-one], in test [1], the IC50 came out at 1000 nM.

With `CN(C)c1ccc(C2=CC[C@H]3[C@@H]4CCC5=CC(=O)CCC5=C4[C@@H](c4ccc(N(C)C)cc4)C[C@]23C)cc1` [Example 3, 11β,17-bis-(4-dimethylamino-phenyl)-Δ^4,9,16-estratriene-3-one], the IC50 in test [1] turned out to be 800 nM.

In the case of `CN(C)c1ccc([C@H]2C[C@]3(C)C(c4ccc(O)cc4)=CC[C@H]3[C@@H]3CCC4=CC(=O)CCC4=C32)cc1` [6 Product B], the IC50 in test [1] turned out to be 50 nM.

For the molecule `CSc1ccc([C@H]2C[C@@]3(C)[C@@H](CC[C@@]3(O)c3ccc(N(C)C)cc3)[C@@H]3CCC4=CC(=O)CCC4=C32)cc1` [Example 7, 11β-(4-methylthio-phenyl)-17α-(4-dimethylamino-phenyl)-Δ^4,9-estraidene-17β-ol-3-one], in test [2] (incubation 2H at 0° C.), the “relative affinity of the bond (ARL), Progestogen, 2H” value came to 32. Besides, the “relative affinity of the bond (ARL), Progestogen, 24H” value in test [2] (incubation 24H at 0° C.) was determined as 150. In addition, the “relative affinity of the bond (ARL), Glucocorticoid, 2H” value in test [3] (incubation 2H at 0° C.) is 71. For the same molecule, the “relative affinity of the bond (ARL), Glucocorticoid, 24H” value in test [3] (incubation 24H at 0° C.) is 57.

These data come from patent US4943566A, “Novel 17-aryl-steroids” (Roussel Uclafi, priority 1987, dated 1990).
